PubChem BioAssay AID248 (DTP/NCI, 2004)
Several values for one entry are separate records, joined by “and”; a condition that tells them apart may be missing. Equal values may be shown once. Inconclusive results and toxic doses are left out. Cut-off read from the data, not from the text of the source: active = T/C of 150% or more; inactive = T/C below 125%.

System: L1210 leukemia ip in BDF1 mice, survival T/C
Experiment: NCI In Vivo Anticancer Drug Screen. Data for tumor model L1210 Leukemia (intraperitoneal) in B6D2F1 (BDF1) mice
Conditions: endpoint: mean survival time, higher = longer survival
Summary of the method: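 Ratio derived from survival: compound-dosed mice over vehicle-dosed mice, all bearing a transplantable tumor.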

[1] = dose: 100.0 mg/kg/injection, schedule: Q04DX002 (ip), vehicle: Klucel (hydroxypropylcellulose) (HPC)
[2] = dose: 200.0 mg/kg/injection, schedule: Q04DX002 (ip), vehicle: Klucel (hydroxypropylcellulose) (HPC)
[3] = dose: 100.0 mg/kg/injection, schedule: Q04DX003 (ip), vehicle: saline
[4] = dose: 200.0 mg/kg/injection, schedule: Q04DX003 (ip), vehicle: saline
[5] = dose: 400.0 mg/kg/injection, schedule: Q04DX003 (ip), vehicle: saline
[6] = dose: 100.0 mg/kg/injection, schedule: Q01DX001 (ip), vehicle: saline
[7] = dose: 100.0 mg/kg/injection, schedule: Q04DX003 (ip), vehicle: saline with Tween-80
[8] = dose: 200.0 mg/kg/injection, schedule: Q04DX003 (ip), vehicle: saline with Tween-80
[9] = dose: 400.0 mg/kg/injection, schedule: Q04DX003 (ip), vehicle: saline with Tween-80
[10] = dose: 100.0 mg/kg/injection, schedule: Q04DX003 (ip), vehicle: acetone
[11] = dose: 200.0 mg/kg/injection, schedule: Q04DX003 (ip), vehicle: acetone
[12] = dose: 400.0 mg/kg/injection, schedule: Q04DX003 (ip), vehicle: acetone

Measured: T/C

Nc1nc2c(ncn2C2OC(COP(=O)(O)O)C(O)C2O)c(=O)[nH]1 (configuration not stated)
inactive: dose: 100.0 mg/kg/injection, schedule: Q01DX005 (ip), vehicle: saline 100 % of control | dose: 100.0 mg/kg/injection, schedule: Q01DX009 (ip), vehicle: saline 101 % of control | dose: 200.0 mg/kg/injection, schedule: Q01DX005 (ip), vehicle: saline 112 % of control | dose: 200.0 mg/kg/injection, schedule: Q01DX009 (ip), vehicle: saline 95 % of control

C[N+]1(C)C2CCCC1CCC2
inactive: dose: 3.12 mg/kg/injection, schedule: Q04DX002 (ip), vehicle: Klucel (hydroxypropylcellulose) (HPC) 93 % of control | dose: 6.25 mg/kg/injection, schedule: Q04DX002 (ip), vehicle: Klucel (hydroxypropylcellulose) (HPC) 104 % of control | dose: 12.5 mg/kg/injection, schedule: Q04DX002 (ip), vehicle: Klucel (hydroxypropylcellulose) (HPC) 90 % of control

O=C(OCC(OC(=O)c1ccccc1)C(OC(=O)c1ccccc1)C(COC(=O)c1ccccc1)OC(=O)c1ccccc1)c1ccccc1 (configuration not stated)
inactive: [1] 93 % of control | [2] 105 % of control | dose: 400.0 mg/kg/injection, schedule: Q04DX002 (ip), vehicle: Klucel (hydroxypropylcellulose) (HPC) 93 % of control

CC[N+](CC)(CC)CCCCCC[N+](CC)(CC)CC
inactive: dose: 3.15 mg/kg/injection, schedule: Q01DX009 (ip), vehicle: water 113 % of control | dose: 6.25 mg/kg/injection, schedule: Q01DX009 (ip), vehicle: water 103 % of control | dose: 6.25 mg/kg/injection, schedule: Q04DX003 (ip), vehicle: saline 103 % of control | dose: 12.5 mg/kg/injection, schedule: Q01DX009 (ip), vehicle: water 100 % of control and 103 % of control | dose: 12.5 mg/kg/injection, schedule: Q04DX003 (ip), vehicle: saline 104 % of control

CCOc1cc2ccc3c4cc(OC)c(OC)cc4c[n+](C)c3c2cc1OCC
inactive: dose: 100.0 mg/kg/injection, schedule: Q04DX002 (ip), vehicle: saline with Tween-80 98 % of control

O=C(SCc1ccccc1)C(O)c1ccccc1 (configuration not stated)
inactive: [3] 94 % of control | [4] 100 % of control | [5] 97 % of control

CNC1(c2ccc(F)cc2)CCCCC1
inactive: dose: 50.0 mg/kg/injection, schedule: Q01DX001 (ip), vehicle: saline 98 % of control | [6] 98 % of control

COc1ccc(-n2c(=O)c(N=Nc3ccc(Cl)cc3)c(O)n(-c3ccccc3OC)c2=S)cc1
inactive: dose: 50.0 mg/kg/injection, schedule: Q01DX001 (ip), vehicle: Klucel (hydroxypropylcellulose) (HPC) 110 % of control | dose: 100.0 mg/kg/injection, schedule: Q01DX001 (ip), vehicle: Klucel (hydroxypropylcellulose) (HPC) 102 % of control | dose: 200.0 mg/kg/injection, schedule: Q01DX001 (ip), vehicle: Klucel (hydroxypropylcellulose) (HPC) 100 % of control

CCCCN(CCCC)CC(O)c1cc(-c2cccc(I)c2)nc2c(Cl)cc(Cl)cc12 (configuration not stated)
inactive: [7] 90 % of control | [8] 86 % of control | [9] 98 % of control

O=C1Nc2ccccc2C(=O)Nc2ccccc21
inactive: [10] 98 % of control | [11] 93 % of control | [12] 101 % of control

COC(=O)C(Cc1ccc(C)cc1)N1CCCCC1 (configuration not stated)
inactive: dose: 100.0 mg/kg/injection, schedule: Q01DX001 (ip), vehicle: carboxymethylcellulose (CMC) 101 % of control | dose: 200.0 mg/kg/injection, schedule: Q01DX001 (ip), vehicle: carboxymethylcellulose (CMC) 101 % of control | dose: 400.0 mg/kg/injection, schedule: Q01DX001 (ip), vehicle: carboxymethylcellulose (CMC) 98 % of control

CC[N+](C)(C)C1CCCCC1
inactive: dose: 75.0 mg/kg/injection, schedule: Q01DX001 (ip), vehicle: saline 94 % of control

CSc1ccnc2c1cnn2C1OC(CO)C(O)C1O (configuration not stated)
inactive: dose: 50.0 mg/kg/injection, schedule: Q01DX005 (ip), vehicle: other 109 % of control | dose: 100.0 mg/kg/injection, schedule: Q01DX005 (ip), vehicle: other 102 % of control | dose: 200.0 mg/kg/injection, schedule: Q01DX005 (ip), vehicle: other 98 % of control

CCCCCCCCC[n+]1cccc(C(N)=O)c1
inactive: [7] 106 % of control

COc1cccc(OC)c1OC(=O)Nc1ccccc1F
inactive: dose: 100.0 mg/kg/injection, schedule: Q01DX009 (ip), vehicle: Klucel (hydroxypropylcellulose) (HPC) 105 % of control | dose: 200.0 mg/kg/injection, schedule: Q01DX009 (ip), vehicle: Klucel (hydroxypropylcellulose) (HPC) 106 % of control | dose: 400.0 mg/kg/injection, schedule: Q01DX009 (ip), vehicle: Klucel (hydroxypropylcellulose) (HPC) 106 % of control

O=C(O)C1CCCC2C(O)CCC(O)C12 (configuration not stated)
inactive: [6] 107 % of control | [3] 105 % of control | dose: 200.0 mg/kg/injection, schedule: Q01DX001 (ip), vehicle: saline 93 % of control | [4] 111 % of control | dose: 400.0 mg/kg/injection, schedule: Q01DX001 (ip), vehicle: saline 91 % of control | [5] 105 % of control

COC(=O)CCNCCSC(=O)c1ccccc1
inactive: [10] 103 % of control | [11] 105 % of control | [12] 102 % of control

Cc1cc(C(=O)O)c(C)cc1C(=O)O
inactive: [7] 98 % of control | [8] 93 % of control | [9] 98 % of control

C=CCN(CC=C)CCSC(=S)NCCOC
inactive: dose: 100.0 mg/kg/injection, schedule: Q01DX001 (ip), vehicle: acetone 100 % of control | [10] 107 % of control | dose: 200.0 mg/kg/injection, schedule: Q01DX001 (ip), vehicle: acetone 97 % of control | [11] 106 % of control | dose: 400.0 mg/kg/injection, schedule: Q01DX001 (ip), vehicle: acetone 90 % of control | [12] 107 % of control

Clc1ccc(-c2nn[nH]n2)cc1
inactive: [1] 96 % of control | [2] 93 % of control

CCCCCCCCCC(=O)CCCCCCC
inactive: dose: 25.0 mg/kg/injection, schedule: Q01DX009 (ip), vehicle: other 105 % of control | dose: 50.0 mg/kg/injection, schedule: Q01DX009 (ip), vehicle: other 102 % of control | dose: 100.0 mg/kg/injection, schedule: Q01DX009 (ip), vehicle: other 95 % of control and 97 % of control | dose: 400.0 mg/kg/injection, schedule: Q01DX009 (ip), vehicle: other 98 % of control

CCCCC(CC)CCC(O)CCC(CC)CC (configuration not stated)
inactive: dose: 100.0 mg/kg/injection, schedule: Q04DX003 (ip), vehicle: Klucel (hydroxypropylcellulose) (HPC) 102 % of control | dose: 200.0 mg/kg/injection, schedule: Q04DX003 (ip), vehicle: Klucel (hydroxypropylcellulose) (HPC) 98 % of control | dose: 400.0 mg/kg/injection, schedule: Q04DX003 (ip), vehicle: Klucel (hydroxypropylcellulose) (HPC) 102 % of control

Cc1ccc2nc(-c3cccc([N+](=O)[O-])c3)oc(=O)c2c1
inactive: [7] 87 % of control | [8] 97 % of control | [9] 97 % of control

C[N+](C)(C)C1(c2ccc(F)cc2)CCCCC1
inactive: dose: 5.0 mg/kg/injection, schedule: Q01DX001 (ip), vehicle: saline 111 % of control | dose: 10.0 mg/kg/injection, schedule: Q01DX001 (ip), vehicle: saline 105 % of control | dose: 20.0 mg/kg/injection, schedule: Q01DX001 (ip), vehicle: saline 111 % of control

CCOC(=O)c1ccc(NC(=O)Nc2ccc(SC)cc2)cc1N(CC)CC
inactive: dose: 100.0 mg/kg/injection, schedule: Q01DX009 (ip), vehicle: saline with Tween-80 104 % of control | dose: 200.0 mg/kg/injection, schedule: Q01DX009 (ip), vehicle: saline with Tween-80 94 % of control | dose: 400.0 mg/kg/injection, schedule: Q01DX009 (ip), vehicle: saline with Tween-80 92 % of control
